Where “and” joins values, the source holds several entries; their conditions need not be identical. Identical values can stand only once. Entries after “also recorded” stand apart in the source; their conditions may differ. Like-named read-outs stand apart in the source and are kept apart here.
What was measured:
HIV-2 (ROD) = experiment: microbe, parasite or virus in culture; type: cell-based; settings: CEM cell cultures, syncytia formation, Table 1; read-out: EC50 HIV-2 ROD
Summary of the method: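 CEM, C8166 or MT-4 cells (4 to 5×10^5 cells/ml) infected with HIV-2 ROD at ~100 CCID50/ml, then incubated with 5-fold compound dilutions at 37 °C for 4–5 days. Giant cell formation scored microscopically in CEM and C8166 cultures; MT-4 viability counted by trypan blue exclusion.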

HIV-1 (IIIB) [1] = experiment: microbe, parasite or virus in culture
Summary of the method: (§1)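 MT-4, C8166 or CEM cells (4 to 5×10^5 cells/ml) infected at ~100 CCID50/ml, incubated with 5-fold compound dilutions at 37 °C for 4–5 days. Read-out: microscopic giant-cell formation in CEM and C8166 cultures; viable-cell count by trypan blue in MT-4.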

HIV-2(ROD) = experiment: microbe, parasite or virus in culture
Summary of the method: as §1

Coxsackie virus B4 [2] = experiment: Antiviral activity in HeLa cell cultures, Coxsackie virus B4; type: cell-based; settings: reduces virus-induced cytopathogenicity by 50%, read-out: Minimum inhibitory concentration Coxsackie virus B4
Method: (§2) The cytotoxicity and antiviral activity of various concentrations of G-NH2 and GPG-NH2 were evaluated in cell cultures that were infected with various types of viruses. Conventional host cell culture, viral infection, and infectivity analysis for each different type of cell and virus were followed. Compounds that were known to inhibit replication of the particular types of viruses analyzed were used as controls.

Coxsackie virus B4 [3] = experiment: Antiviral activity in Vero cell cultures, Coxsackie virus B4; type: cell-based; settings: reduces virus-induced cytopathogenicity by 50%, read-out: Minimum inhibitory concentration Coxsackie virus B4
Method: as §2

HIV (SF2 virus) [4] = experiment: HIV infectivity assay, SF2-infected H9 cells, reverse transcriptase (RT) quantification in supernatant; type: cell-based; settings: for OD405-620 / OD405-620 - Blank / RT mean / RT: fetal calf serum; for RT mean: mean of replicates; for RT: single replicate
HIV (SF2 virus) [5] = experiment: HIV infectivity assay, SF2-infected H9 cells, p24 quantification; type: cell-based; settings: for OD1: replicates (1)-(3)
Method: The remaining wells were filled with sterile distilled water. The cell culture plates were incubated at 37° C. and 5% CO2. After four days the medium was changed, after eight days the medium was changed and the cells were collected. After 11 days, the infection was stopped, the cells were viewed in a 10× magnification microscope and 650 μl of each cell supernatant was collected and frozen at −80° C. for further analysis. After five more days, the supernatants were thawed and used in a conventional reverse transcriptase (RT) activity assay (e.g., Roche AMPLICOR MONITOR™) or a p24 quantification assay (e.g., Abbott Laboratories, Chicago). (See U.S. Pat. No. 6,258,932 and U.S. patent application Ser. No. 10/235,158, both of which are hereby expressly incorporated by reference in its entireties).
[…] The cells in the samples were counted and then centrifuged. The cells were then resuspended in 10 ml of RPMI 1640 (containing fetal calf serum) and either […] Metabolite X or 100 μM GPG-NH2. Uninfected control and untreated control samples were also included in the experiment. The samples were then incubated overnight at 37° C. at 5% CO2.
Then, the amount of p24 in the samples was analysed using a conventional p24 detection assay (see U.S. Pat. No. 6,258,932).
Three replicate samples (“replicates”) of uninfected samples and untreated samples were also included in the experiment as controls. The inhibition of HIV replication was monitored by quantifying the levels of p24 using a conventional detection kit.
Three replicates of unninfected samples and untreated samples were also included in the experiment as controls.

HIV-1 (IIIB) [6] = test system: HIV-1 (IIIB)
Vaccinia virus = settings: read-out: Minimum inhibitory concentration Vaccinia virus; HEL; reduces virus-induced cytopathogenicity by 50%
[7] = test system: Vesicular stomatitis virus; settings: read-out: Minimum inhibitory concentration Vesicular stomatitis virus; HEL; reduces virus-induced cytopathogenicity by 50%
[8] = test system: Respiratory syncytial virus; settings: read-out: Minimum inhibitory concentration Respiratory syncytial virus; HeLa; reduces virus-induced cytopathogenicity by 50%
Reovirus-1 = settings: read-out: Minimum inhibitory concentration Reovirus-1; Vero; reduces virus-induced cytopathogenicity by 50%
Sindbis virus = settings: read-out: Minimum inhibitory concentration Sindbis virus; Vero; reduces virus-induced cytopathogenicity by 50%

NCC(N)=O [G-NH2, glycinamide]
EC50 (HIV-2 (ROD)): 35 ± 8.7 µM
EC50 (HIV-1 (IIIB) [1]; read-out: EC50 (C8166) HIV-1 (IIIB), Table 19): 150 µM
EC50 (HIV-1 (IIIB) [1]; read-out: EC50 (C8166) HIV-1 (IIIB), Table 20): 150 µM
EC50 (HIV-1 (IIIB) [1]; read-out: EC50 (MT-4) HIV-1 (IIIB), Table 19): > 500 µM
EC50 (HIV-1 (IIIB) [1]; read-out: EC50 (MT-4) HIV-1(IIIB), Table 20, related set of experiments): > 500 µM
EC50 (HIV-2(ROD); read-out: EC50 (C8166) HIV-2 (ROD), Table 19): 150 µM
EC50 (HIV-2(ROD); read-out: EC50 (C8166) HIV-2 (ROD), Table 20): 150 µM
EC50 (HIV-2(ROD); read-out: EC50 (MT-4) HIV-2 (ROD), Table 19): > 500 µM
EC50 (HIV-2(ROD); read-out: EC50 (MT-4) HIV-2 (ROD), Table 20): > 500 µM
EC50 (Coxsackie virus B4 [2]): > 2 mM
EC50 (Coxsackie virus B4 [3]): > 2 mM
OD405-620 (HIV (SF2 virus) [4]; 0.5 μM): 0.871 and 0.896 and 0.908
OD405-620 - Blank (HIV (SF2 virus) [4]; 0.5 μM): 0.845 and 0.87 and 0.882
RT mean (HIV (SF2 virus) [4]; 0.5 μM): 9152 pg/mL
RT (HIV (SF2 virus) [4]; 0.5 μM): 8927 pg/mL and 9199 pg/mL and 9329 pg/mL
OD405-620 (HIV (SF2 virus) [4]; 1 μM): 0.563 and 0.672 and 0.712
OD405-620 - Blank (HIV (SF2 virus) [4]; 1 μM): 0.537 and 0.646 and 0.686
RT mean (HIV (SF2 virus) [4]; 1 μM): 6514 pg/mL
RT (HIV (SF2 virus) [4]; 1 μM): 5579 pg/mL and 6764 pg/mL and 7199 pg/mL
OD405-620 (HIV (SF2 virus) [4]; 2 μM): 0.868 and 0.903 and 0.528
OD405-620 - Blank (HIV (SF2 virus) [4]; 2 μM): 0.842 and 0.877 and 0.502
RT mean (HIV (SF2 virus) [4]; 2 μM): 7789 pg/mL
RT (HIV (SF2 virus) [4]; 2 μM): 8895 pg/mL and 9275 pg/mL and 5199 pg/mL
OD405-620 (HIV (SF2 virus) [4]; 4 μM): 0.781 and 0.493 and 0.539
OD405-620 - Blank (HIV (SF2 virus) [4]; 4 μM): 0.755 and 0.467 and 0.513
RT mean (HIV (SF2 virus) [4]; 4 μM): 6029 pg/mL
RT (HIV (SF2 virus) [4]; 4 μM): 7949 pg/mL and 4818 pg/mL and 5318 pg/mL
OD405-620 (HIV (SF2 virus) [4]; 8 μM): 0.274 and 0.302 and 0.332
OD405-620 - Blank (HIV (SF2 virus) [4]; 8 μM): 0.248 and 0.276 and 0.306
RT mean (HIV (SF2 virus) [4]; 8 μM): 2750 pg/mL
RT (HIV (SF2 virus) [4]; 8 μM): 2438 pg/mL and 2742 pg/mL and 3068 pg/mL
OD405-620 (HIV (SF2 virus) [4]; 16 μM): 0.563 and 0.861 and 0.902
OD405-620 - Blank (HIV (SF2 virus) [4]; 16 μM): 0.537 and 0.835 and 0.876
RT mean (HIV (SF2 virus) [4]; 16 μM): 158 pg/mL
RT (HIV (SF2 virus) [4]; 16 μM): 112 pg/mL and 176 pg/mL and 185 pg/mL
OD405-620 (HIV (SF2 virus) [4]; 32 μM): 0.141 and 0.155
OD405-620 - Blank (HIV (SF2 virus) [4]; 32 μM): 0.115 and 0.129
RT mean (HIV (SF2 virus) [4]; 32 μM): 21 pg/mL
RT (HIV (SF2 virus) [4]; 32 μM): 20 pg/mL and 23 pg/mL
inhibition of HIV replication, reverse transcriptase (RT) activity (HIV (SF2 virus) [4]; cultures containing boiled fetal calf serum): unable to inhibit replication of HIV; also recorded: did not
OD1 (HIV (SF2 virus) [5]; 50 μM, fetal calf serum): 0.182 and 0.105 and 0.319
conc p24 (HIV (SF2 virus) [5]; 50 μM, human serum): 714.23 ng/mL and 653.27 ng/mL and 773.51 ng/mL
OD2 (HIV (SF2 virus) [5]; 100 μM, fetal calf serum): 0.075 and 0.069 and 0.071
conc p24 (HIV (SF2 virus) [5]; 100 μM, fetal calf serum): 0.09 ng/mL and 0.08 ng/mL
mean OD (HIV (SF2 virus) [5]; 100 μM, fetal calf serum): 0.077 and 0.070 and 0.074
mean OD - blank (HIV (SF2 virus) [5]; 100 μM, fetal calf serum): 0.035 and 0.028 and 0.032
OD1 (HIV (SF2 virus) [5]; 100 μM, fetal calf serum): 0.078 and 0.071 and 0.077
conc p24 (HIV (SF2 virus) [5]; 100 μM, human serum): 780.21 ng/mL and 785.24 ng/mL and 876.34 ng/mL
inhibition of HIV replication, accumulation of p24 (HIV (SF2 virus) [5]; human serum): unable to inhibit HIV replication in human serum
ability to inhibit the replication of HIV (HIV-1 (IIIB) [6]; G-NH2 in medium with heat inactivated serum (10% fetal bovine serum, 95° C., 30 minutes)): lost its ability to inhibit the replication of HIV
inhibition of replication of HIV (HIV-1 (IIIB) [6]; boiled fetal bovine serum or human serum samples, results the experiments will show): does not
EC50 (HIV-1 (IIIB) [6]; read-out: 50% effective concentration, HIV replication in CEM cell cultures): ~30 µM
EC50 (HIV-1 (IIIB) [6]; read-out: EC50 (CEM) HIV-1 (IIIB), Table 19): 25 ± 7.1 µM
EC50 (HIV-1 (IIIB) [6]; read-out: EC50 (CEM) HIV-1(IIIB), Table 20): 25 ± 7.1 µM
EC50 (HIV-1 (IIIB) [6]; read-out: EC50 HIV-1 IIIB, CEM cell cultures, syncytia formation, Table 1): 32 ± 7.6 µM
EC50 (HIV-1 (IIIB) [6]; read-out: EC50 against HIV-1(IIIB), CEM cell cultures, Table 2): ~21.3 µM
EC50 (HIV-1 (IIIB) [6]; read-out: EC50 against HIV-1(IIIB), CEM cell cultures, Table 2, listed as Glycinamide): 21.3 ± 16.3 µM
EC50 (Vaccinia virus): > 2 mM
EC50 [7]: > 2 mM
EC50 [8]: > 2 mM
EC50 (Reovirus-1): > 2 mM
EC50 (Sindbis virus): > 2 mM

Reference: US20080076824A1, “Compounds That Inhibit Replication Of Human Immunodeficiency Virus” (priority 2004, published 2008)
